Measured values from patent publication US10449152B2, “Drug loaded microspheres for post-operative chronic pain” (priority 2014, dated 2019).

Columns and labels:
[1] = tested on: post-operative hyperalgesia after paw incision; assay: paw incision post-operative hyperalgesia, injection at the sciatic nerve; type: in vivo, rats; conditions: nerve block before paw incision
Procedure: Microspheres of Example 1 were also tested for anti-hyperalgesic effects after rodent surgery. […] If microspheres of Example 1 were injected at the sciatic nerve approximately 1.5 hours before the surgery, the subsequent post-operative hyperalgesia was suppressed for about 4 days. In contrast, nerve block by 0.5% by weight aqueous bupivacaine solution suppressed post-operative hyperalgesia for about 6 hours. Microspheres of Example 2 were ineffective against post-incisional pain.

sciatic nerve [2] = assay: sciatic nerve block, latency for leg withdrawal from noxious heat; type: in vivo, male S-D rats; conditions: about 0.6 milliliters next to the sciatic nerve; heat stimulus of about 56° C.
Procedure: The anti-nociceptive activity of EXPAREL® particles was also tested. The latency for leg withdrawal in male S-D rats from a noxious heat stimulus of about 56° C. applied to the plantar surface of the paw was used to test the duration of functional sciatic nerve block achieved using EXPAREL®. The normal latency for paw withdrawal was about 2 seconds and “maximal sensory blockade” was characterized by a latency of about 12 seconds. Sensory blockade of about 0.6 milliliters of EXPAREL® containing about 7.8 milligrams of bupivacaine, injected next to the sciatic nerve of an adult male S-D rat weighing from about 310 grams to about 420 grams, which was equivalent to about 25 milligrams of bupivacaine per kilogram, was determined by the time from injection until the latency returned to about 7 seconds, half way back to the pre-injection latency of about 2 seconds. By this criterion, the sensing block from EXPAREL® lasted about 240 minutes, and that from 0.6 milliliter solution of about 0.5% by weight bupivacaine, which was used as a control, lasted about 120 minutes.

sciatic nerve [3] = assay: sciatic nerve block in rats (paw pinch, motor block); type: in vivo; conditions: single bolus of about 0.4 milliliters at the sciatic nerve
Procedure: The microspheres of Example 1 were also tested for sciatic nerve block and for subcutaneous infiltration anesthesia in rats. Sciatic nerves were injected with nominal doses of microspheres of Example 1, having about 40 milligrams of bupivacaine, by injection as a single bolus of about 0.4 milliliters. […] Half-recovery of these respective functions occurred at about 42±6 hours and 36±3 hours, and normal, pre-block function was restored by about 63±8 hours for nociception and about 56±7 hours for motor block. By comparison, injection of about 0.4 milliliters of about 0.5% by weight aqueous bupivacaine solution gave complete blocks for only about 0.5 hours to about 1 hours for nociception and about 1 hour for motor functions, with complete recovery by about 3 hours for both functions.

[4] = tested on: post-operative allodynia and hyperalgesia; assay: incision and blunt dissection of the back skin, post-operative allodynia and hyperalgesia; type: in vivo, rats; conditions: about 0.4 milliliters subcutaneous infiltration
Procedure: In a second surgical scenario, Microspheres of Example 1 were injected as a subcutaneous infiltration in the thoraco-lumbar region before an incision and blunt dissection of the back skin. Microspheres of Example 1, including about 40 milligrams of bupivacaine, were injected as a single bolus of about 0.4 milliliters. The injection produced anesthesia to VFH pokes at the injected area for about 6 hours and anesthesia to pin pricks for about 12 hours. Post-operative allodynia and hyperalgesia in this model lasted for about 14 days, but were suppressed for approximately 5 days and 3 days, respectively, by microspheres of Example 1 injected approximately 2 hours before surgery. About 0.4 milliliters of 0.5% by weight aqueous bupivacaine solution was ineffective in reducing post-operative hypersensitivity, just as the microspheres of Example 2 were also ineffective.

CCCCN1CCCCC1C(=O)Nc1c(C)cccc1C (stereo not drawn) [bupivacaine]
time for which post-operative hyperalgesia was suppressed [1]: about 6 hours
duration of sensory block (time until latency returned to about 7 seconds) (sciatic nerve [2]): about 120 minutes
duration of complete motor block (total flaccid paralysis) (sciatic nerve [3]): about 1 hours
time to normal, pre-block function (complete recovery), motor (sciatic nerve [3]): about 3 hours
time to normal, pre-block function (complete recovery), nociception (sciatic nerve [3]): about 3 hours
reduction of post-operative hypersensitivity [4]: ineffective
